According to US20150320748A1, “AGENT FOR INHIBITING EXPRESSION OF LIPID METABOLISM RELATED MRNA” (KOWA CO., LTD., priority 2011, published 2015):

Experiments:
[1] = target: T1, cholesterol ester transfer protein (CETP) (Homo sapiens, UniProt P11597); assay: CETP inhibitory effect; format: biochemical; conditions: no method or values printed
T1 sequence (P11597 18-493): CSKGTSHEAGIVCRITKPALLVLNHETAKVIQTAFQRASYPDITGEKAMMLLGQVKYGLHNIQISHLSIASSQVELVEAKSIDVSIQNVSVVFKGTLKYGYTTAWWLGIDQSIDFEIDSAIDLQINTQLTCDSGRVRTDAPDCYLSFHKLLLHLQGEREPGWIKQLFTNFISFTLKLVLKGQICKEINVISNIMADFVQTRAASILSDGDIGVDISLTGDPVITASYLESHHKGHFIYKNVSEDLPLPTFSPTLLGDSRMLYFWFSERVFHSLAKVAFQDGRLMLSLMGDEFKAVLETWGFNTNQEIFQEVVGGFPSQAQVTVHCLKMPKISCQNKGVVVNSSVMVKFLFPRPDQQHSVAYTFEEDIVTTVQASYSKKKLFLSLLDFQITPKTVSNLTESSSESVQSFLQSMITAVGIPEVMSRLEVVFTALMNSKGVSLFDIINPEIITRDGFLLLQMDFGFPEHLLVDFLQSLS

SREBP1c mRNA = assay: Expression level of SREBP1c mRNA in HepG2 cells by real-time quantitative RT-PCR; format: cell-based, human; conditions: 0.1, 1, 10 mM DMSO solutions added at 1 to 1000, corrected by β-Actin mRNA, FIG. 2
Protocol: The test compound 2 was added to the HepG2 cells of human liver cancer cell line, cultured for 24 hours, and then the expression level of SREBP1c mRNA was measured by real-time quantitative RT-PCR. More specifically, the HepG2 cells were seeded on a 24-well plate at a concentration of 2×10^5 cells/well, and cultured overnight. The test compound 2 was dissolved in dimethyl sulf oxide (DMSO) at concentrations of 0.1 mM, 1 mM, and 10 mM, and added to the culture solution at the rate of 1 to 1000. The mixture was cultured for 8 hours in a CO2 incubator at 37° C., and then 500 μL of ISOGEN (Nippon Gene Co., Ltd., catalogue No. 31-02501) was added, and the total RNA was extracted. […] The expression level of human SREBP1c mRNA was measured using a TaqMan probe 5′-[sequence]-3′ (SEQ ID NO. 3), a sense primer: 5′-[sequence]-3′ (SEQ ID NO. 4), and an antisense primer 5′-[sequence]-3′ (SEQ ID NO. 5), which are specific to human SREBP1c, and TaqMan Fast Universal PCR Master Mix (Applied Biosystems, catalogue No. 4367846). […]
The measurement value was corrected by the expression level of β-Actin mRNA. The expression level of SREBP1c mRNA in the cells mixed with DMSO alone was set at 1, and the expression level of SREBP1c mRNA in the cells mixed with the test compound 2 was calculated as relative value.

SCD-1 mRNA = assay: Expression level of SCD-1 mRNA in HepG2 cells by real-time quantitative RT-PCR; format: cell-based, human; conditions: 0.1, 1, 10 mM DMSO solutions added at 1 to 1000, corrected by β-Actin mRNA, FIG. 3
Protocol: More specifically, the HepG2 cells were seeded on a 24-well plate at a concentration of 2×10^5 cells/well, and cultured overnight. […] The mixture was cultured for 8 hours in a CO2 incubator at 37° C., and then 500 μL of ISOGEN (Nippon Gene Co., Ltd., catalogue No. 31-02501) was added, and the total RNA was extracted. From the extracted total RNA, cDNA was synthesized using High Capacity cDNA Reverse Transcription kit (Applied Biosystems, catalogue No. 4368813). The expression level of human SCD-1 was measured using a primer 5′-[sequence]-3′ (SEQ ID NO. 6), an antisense primer 5′-[sequence]-3′ (SEQ ID NO. 7), which are specific to human SCD-1, and Fast SYBR Green master mix (Applied Biosystems, catalogue No. 4385614). The measurement instrument was 7900HT Fast Realtime PCR system.
The measurement value was corrected by the expression level of β-Actin mRNA.

CETP inhibitory effect (test compound 2 compared with Anacetrapib) [1] | Structure (SMILES) | decrease of the expression level of SREBP1c mRNA (relative value, DMSO alone = 1) (SREBP1c mRNA) | decrease of the expression level of SCD-1 mRNA (relative value, DMSO alone = 1) (SCD-1 mRNA)
equal | COc1cc(F)c(C(C)C)cc1-c1ccc(C(F)(F)F)cc1CN1C(=O)O[C@H](c2cc(C(F)(F)F)cc(C(F)(F)F)c2)[C@@H]1C [Anacetrapib, (4S,5R) -5-[3,5-bis(trifluoromethyl)phenyl]-3-({2-[4-fluoro-2-methoxy-5-(propane-2-yl)phenyl]-5-(trifluoromethyl)phenyl}methyl)-4-methyl-1,3-oxazolidine-2-one, reference compound] |  | 
equal | CCN(C[C@H]1CC[C@H](CC(=O)O)CC1)c1ccc(C(F)(F)F)cc1CN(c1ncc(OCCS(C)(=O)=O)cn1)[C@@H](C)c1cc(C(F)(F)F)cc(C(F)(F)F)c1 [compound 2] | evidently stronger than that of Anacetrapib | evidently stronger than that of Anacetrapib
